According to publication PMC11645656, “MRGPRX4 mediates phospho-drug associated pruritus in a humanized mouse model” (Science translational medicine, 2024):
Like-named read-outs stand apart in the source and are kept apart here.

Experiments:
[1] = molecular target: MRGPRX4 S83L (L83) (Homo sapiens, UniProt Q96LA9); assay: PRESTO-Tango β-arrestin recruitment assay, HTLA cells stably expressing S83L MRGPRX4; format: cell-based; conditions: single replicate
Description: HTLA cells, a cell line derived from HEK293 and engineered to stably express a tTA-dependent luciferase reporter and a β-arrestin2-TEV fusion gene, were generously provided by Richard Axel's laboratory. HTLA cells were cultured in growth medium containing 2 μg/ml puromycin and 100 μg/ml hygromycin B in 5% CO2 at 37 °C. Stably MRGPRX4-expressing HTLA cells were generated by transfecting pcDNA3.1(+)-Zeo containing MRGPRX4-Tango construct (either with WT or S83L mutant sequence) into HTLA cells with Lipofectamine 3000 and selecting the successful transfected clones with Zeocin.
HTLA cells stably expressing either WT or S83L MRGPRX4 were seeded in PDL-coated 96-well white clear bottom cell culture plates with DMEM containing 10% FBS, at a density of 35,000 cells per well and were allowed to attach to the bottom of the wells overnight. The next day, growth medium was replaced with 100 μl of serum-free medium containing the tested drugs at various concentrations, and the cells were then incubated at 37°C for 24 h. On the following day, media with drug solutions was removed and 50 μl per well of Bright-Glo™ Reagent from Bright-Glo™ Luciferase Assay System (Promega) was loaded. The plate was incubated at room temperature in the dark for 5 min, and the relative luminescence units were measured using the Flexstation-3 instrument with SoftMax®Pro 7.1 software (Molecular Devices). Dose response curves and EC50s were analyzed as described above.
MRGPRX4 by β-arrestin (Tango) recruitment assay. Data are from three independent experiments,
performed in triplicate, and depicted as mean ± SEM.

[2] = system: NP2-X4+ DRG neurons; assay: GCaMP6s calcium imaging of cultured NP2-X4+ DRG neurons; format: cell-based, mouse; conditions: 10 μM phospho-drugs; 1 mM CQ
Excerpt: Fig. 2. Phosphate monoester prodrugs induce itch in NP2-MRGPRX4+ mice through activating NP2 primary sensory neurons. (A) Mating strategy to generate NP2-X4+ mice. (B) In situ hybridization showing MRGPRX4 transcripts (magenta) in NP2-X4+ DRG as indicated by arrowheads (left) but not in littermate control NP2-WT (right). NP2 subpopulation accounts for 5% of total DRG neurons. DAPI, blue. Scale bar, 50 μm. […]. Data are expressed as mean ± SEM. *p< 0.05, **p< 0.01 and ***p< 0.001 by two-tailed unpaired Student’s t-test. ns = no statistical significance observed. (D and E) Traces of average (top, depicted as mean ± 95% confidence interval) and individual (bottom, reflected by the heatmap) calcium activity, measured by fluorescence intensity normalized to the baseline intensity (FT/F0) over time of NP2-X4+ (D) and NP2-WT (E) DRG neurons labelled with GCaMP6s (n = 110–150 neurons pooled from 3–7 independent culture vessels from 2–4 mice in each condition). 10 μM phospho-drugs and 1 mM CQ were added as indicated by the arrowheads. Neurons with FT/F0 > 1.5 after compound application were considered a positive responder. NP2-X4+: NP2-MRGPRX4+; DRG, dorsal root ganglia; CQ: chloroquine.
The procedures were performed following previously established protocols ([15]). Murine DRGs (from both male and female) were harvested from all spinal segments and digested in dispase (5 mg/ml) / type I collagenase (1 mg/ml) enzyme mix at 37 °C for an hour. Enzyme mix was replaced with complete DH10 media (90% DMEM/F12, 10% FBS, penicillin (100 units/ml), and streptomycin (100 μg/ml)) and gently triturated with 1 ml pipette tip until the media turned cloudy without visible tissue chunks. Dissociated tissues were filtered through a 70 μm filter and spun down 1250 rpm for 5 min at RT. Supernatant was removed and the cell pellet was resuspended in complete DH10 media. Cell suspension was then added on top of poly-D-lysine- and laminin-coated coverslips and sat for 1–2 h at 37°C. Complete DH10 media supplemented with NGF (50 ng/ml) was then added into the vessel. Neurons were allowed to recover overnight at 37°C for the next-day calcium imaging experiment.
Calcium imaging data was collected with a Nikon Eclipse TE 200 microscope. Time series GCaMP6 fluorescence intensity was acquired through the FITC/GFP channel. Before the imaging, cultured neurons were washed and equilibrated in CIB for 30 min at 37°C. In each trial, compounds (as indicated in the results) were added into the imaging chamber after a 30 s baseline GCaMP6 activity was collected. […] Neurons with GCaMP6 signal rose above 50% of the baseline intensity after compound application were counted as positive responders and the percentage of responding neurons was calculated. […]

[3] = system: WT NP1-3 DRG neurons; assay: GCaMP6s calcium imaging of NP1-3 DRG neurons from Pirt-Cre; Rosa-lsl-GCaMP6s mice; format: cell-based, mouse; conditions: 10 µM
Description: Calcium imaging data was collected with a Nikon Eclipse TE 200 microscope. Time series GCaMP6 fluorescence intensity was acquired through the FITC/GFP channel. […] Neurons with GCaMP6 signal rose above 50% of the baseline intensity after compound application were counted as positive responders and the percentage of responding neurons was calculated. […]
(top) and individual (bottom) calcium activity, measured by fluorescence intensity normaliz ed to […]
activity from the recorded neurons is shown in heatmap. […]

[4] = cited from earlier work

Chain of MRGPRX4 S83L (L83) (Q96LA9 whole entry, stated change not applied, the tested form may be a part): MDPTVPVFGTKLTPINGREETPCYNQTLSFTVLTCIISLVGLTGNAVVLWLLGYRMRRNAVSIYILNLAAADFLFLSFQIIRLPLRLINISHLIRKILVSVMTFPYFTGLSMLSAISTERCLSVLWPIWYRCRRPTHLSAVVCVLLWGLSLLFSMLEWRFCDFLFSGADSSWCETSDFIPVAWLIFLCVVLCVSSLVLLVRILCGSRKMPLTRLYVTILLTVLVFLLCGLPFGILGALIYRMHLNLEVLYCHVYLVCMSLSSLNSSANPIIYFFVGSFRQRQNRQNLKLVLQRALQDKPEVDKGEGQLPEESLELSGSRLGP

| SMILES | fig. S7 response (raw signal), concentration-response ([1]; 3.91e-6 M) | fig. S7 response (raw signal), concentration-response ([1]; 7.81e-6 M) | Calcium response of NP2-X4+ neurons [2] | Activation of NP1–3 neuron populations [3] | Solubility relative to parent drug ([4]; vs phenytoin) [fold] | fig. S7 response (raw signal), concentration-response ([1]; 1.95e-8 M) | Solubility relative to parent drug ([4]; vs propofol) [fold] |
| --- | --- | --- | --- | --- | --- | --- | --- |
| O=C1NC(c2ccccc2)(c2ccccc2)C(=O)N1COP(=O)(O)O [Fosphenytoin] | 13508.2 | 22144.4 | strong calcium transients | few neurons were activated | 4500 | – | – |
| CC(C)c1cccc(C(C)C)c1OCOP(=O)(O)O [Fospropofol] | – | – | strong calcium transients | few neurons were activated | – | 10514 | 3000 |
